Tests used:
[1] = pH 7; cited from earlier work
peanut [2] = test: peanut field study, frost injury rating; format: in vivo; details: for Frost Injury, Pr > |T|: frost 66 days after last spray
Excerpt: (§1) A peanut field was fumigated on April 28 with Metam sodium to control Cylindrocladium. The test plants were planted on May 22 with 16 different varieties of seed (Andru 93; Georgia Green; Tam Run 98; AT120; Southern Runner; Georgia Gold; Georgia Runner; 6K7WIDLEIL; FLA97R; FLAMDR98; FLA84x9B; NC7; VA93B; Perry; VA92R; VA98R), with a two-row planter. Temik and rhizobium were applied in furrow at standard rates. The spray date for the first treatment was July 20; the spray date for the second treatment was August 19. A tractor-mounted sprayer was used for all treatment sprays, with three hollow-cone nozzles per row at 40 psi, and 15 gal water/acre, at a height to cover the entire plant. Only the two treatment rows were sprayed. There were two unsprayed border rows between each treatment, to minimize interplot interference, and to assure even distribution of disease across plots. Herbicides, insecticides, and early leafspot control were applied according to standard practices across the field. Particular treatments were as follows:
(§2) (2) 15.22 fl. oz. Omega 500™ fluazinam 500F/acre (per spray)
(§3) (3) 30.44 fl. oz. Omega 500™ fluazinam 500F/acre (per spray)
(§4) (4) 60.88 fl. oz. Omega 500™ fluazinam 500F/acre (per spray)
(§5) (5) 32.0 fl. oz. Rovral™ brand iprodione+7.68 fl. oz. Nufilm™ adjuvant per acre (per spray)
Frost occurred on October 25. Frost ratings were done on November 2d. Rating Index: 1<5% green leaves, 4>50% green leaves; values between 1 and 4 were scaled from 5 to 50%. Stems were not rated, and varied from completely brown, to black, to bright green. When rating percentage of green leaves in a plot, those obviously dead from disease were ignored, and the rating was based on the remaining leaves.
(§6) Data: Statistics were run using the SAS System using the General Linear Models Procedure.

peanut [3] = test: peanut field study, yield per acre; format: in vivo
Excerpt: as §1, §2, §3, §4, §5
Peanuts were dug on November 10, and harvested on November 15. Moisture samples were taken from untreated plots of each variety. Yields were adjusted to 9% moisture.
as §6

Sclerotinia blight = test: peanut field study, disease incidence; format: in vivo
Excerpt: as §1, §2, §3, §4, §5, §6

[4] = treatment effect on various peanut cultivars

In the case of `O=[N+]([O-])c1cc(C(F)(F)F)c(Cl)c([N+](=O)[O-])c1Nc1ncc(C(F)(F)F)cc1Cl` [fluazinam], the water solubility [1] is listed as 0.071 ppm, the “Frost Injury, Pr > |T|” value (peanut [2]; High Rate vs Control) is listed as 0.0001 and the “Frost Injury, Pr > |T|” value (peanut [2]; High Rate vs Rovral) is listed as 0.0001. The frost protection (peanut [2]; high rate, compared to both Untreated Control and Rovral) was “statistically significantly better frost protection”, the frost injury (peanut [2]; [4]) was “significantly reduced” and the “Yield/Acre, Pr > |T|” value (peanut [3]; High Rate vs Control) was 0.0001. The “Yield/Acre, Pr > |T|” value (peanut [3]; High Rate vs Rovral) was 0.0001, the yields (peanut [3]; high rate, vs both Untreated Control and Rovral) was “statistically significantly higher” and the yields (peanut [3]; treatment effect) was “significantly higher”. The “Disease Incidence, Pr > |T|” value (Sclerotinia blight; High Rate vs Control) was 0.0001, the “Disease Incidence, Pr > |T|” value (Sclerotinia blight; High Rate vs Rovral) was 0.3911 and the disease control (Sclerotinia blight; High Rate vs Rovral) was “not significantly better”. For the same molecule, the disease control (Sclerotinia blight; high rate, vs Untreated Control) was “statistically significantly better disease control” and the Sclerotinia blight (Sclerotinia blight; [4]) was “significantly reduced”.
